Literature values as cited in US20190124976A1, “NICOTINE DOSAGE REGIMEN” (priority 2014, published 2019).

Settings: reported to be as low as

CN1CCCC1c1cccnc1 (stereo not shown) [nicotine]
minimal lethal dose: 30 mg
